# Data as given in article PMC3961306, “Comparison of the Cancer Gene Targeting and Biochemical Selectivities of All Targeted Kinase Inhibitors Approved for Clinical Use” (PLoS ONE, 2014).
# pIC50: −log10 of the molar value. Several values for one entry are separate records, joined by “and”; a condition that tells them apart may be missing. Identical values can stand only once. Like-named read-outs stand apart in the source and are kept apart here.
# System: forty-four human cancer cell lines
# Assay: Cell proliferation assay (ATPlite, 72 hours) in the 44 cell line Oncolines panel
# Assay type: cell-based
smiles,measurement,setting,value
COc1cccc2c1C(=O)c1c(O)c3c(c(O)c1C2=O)C[C@@](O)(C(=O)CO)C[C@@H]3O[C@H]1C[C@H](N)[C@H](O)[C@H](C)O1 [doxorubicin],pIC50,"Homo sapiens, 769-P, cell line 769-P, read-out: cell panel IC50, 769-P",6.95
same,pIC50,"Homo sapiens, 786-0, cell line 786-0, read-out: cell panel IC50, 786-0",6.90
same,pIC50,"Homo sapiens, A 172, read-out: cell panel IC50, A-172, cell line A-172",7.03
same,pIC50,"Homo sapiens, A498, read-out: cell panel IC50, A-498, cell line A-498",7.02
same,pIC50,"Homo sapiens, A549, read-out: cell panel IC50, A-549, cell line A-549",7.09
same,pIC50,"Homo sapiens, A-375, cell line A375, read-out: cell panel IC50, A375",7.42
same,pIC50,"Homo sapiens, A-427, read-out: cell panel IC50, A-427, cell line A-427",7.57
same,pIC50,"Homo sapiens, ACHN, cell line ACHN, read-out: cell panel IC50, ACHN",7.21
same,pIC50,"Homo sapiens, AN3-CA, cell line AN3 CA, read-out: cell panel IC50, AN3 CA",7.12
same,pIC50,"Homo sapiens, AU565, read-out: cell panel IC50, AU-565, cell line AU-565",7.14
same,pIC50,"Homo sapiens, BT-20, cell line BT-20, read-out: cell panel IC50, BT-20",6.72
same,pIC50,"Homo sapiens, BT-549, read-out: cell panel IC50, BT-549, cell line BT-549",7.12
same,pIC50,"Homo sapiens, BXPC-3, cell line BxPC-3, read-out: cell panel IC50, BxPC-3",6.76
same,pIC50,"Homo sapiens, C-33-A, cell line C-33 A, read-out: cell panel IC50, C-33 A",7.59
same,pIC50,"Homo sapiens, CAL-27, cell line CAL 27, read-out: cell panel IC50, CAL 27",7.68
same,pIC50,"Homo sapiens, CCRF-CEM, cell line CCRF-CEM, read-out: cell panel IC50, CCRF-CEM",7.77
same,pIC50,"Homo sapiens, DLD-1, cell line DLD-1, read-out: cell panel IC50, DLD-1",6.36
same,pIC50,"Homo sapiens, FaDu, cell line FaDu, read-out: cell panel IC50, FaDu",7.35
same,pIC50,"Homo sapiens, HCT-15, cell line HCT-15, read-out: cell panel IC50, HCT-15",6.63
same,pIC50,"Homo sapiens, HCT-116, read-out: cell panel IC50, HCT-116, cell line HCT-116",7.36
same,pIC50,"Homo sapiens, Hs-578T, cell line Hs 578T, read-out: cell panel IC50, Hs 578T",7.10
same,pIC50,"Homo sapiens, Jurkat E6.1, cell line Jurkat E6.1, read-out: cell panel IC50, Jurkat E6.1",7.59
same,pIC50,"Homo sapiens, K562, read-out: cell panel IC50, K-562, cell line K-562",7.26
same,pIC50,"Homo sapiens, LoVo, cell line LoVo, read-out: cell panel IC50, LoVo",7.31
same,pIC50,"Homo sapiens, MG-63, cell line MG-63, read-out: cell panel IC50, MG-63",7.25
same,pIC50,"Homo sapiens, MOLT-4, cell line MOLT-4, read-out: cell panel IC50, MOLT-4",7.92
same,pIC50,"Homo sapiens, MeWo, cell line MeWo, read-out: cell panel IC50, MeWo",6.69
same,pIC50,"Homo sapiens, NCI-H82, cell line NCI-H82, read-out: cell panel IC50, NCI-H82",7.28
same,pIC50,"Homo sapiens, NCI-H460, cell line NCI-H460, read-out: cell panel IC50, NCI-H460",7.68
same,pIC50,"Homo sapiens, OVCAR-3, cell line OVCAR-3, read-out: cell panel IC50, OVCAR-3",6.59
same,pIC50,"Homo sapiens, RPMI-7951, cell line RPMI-7951, read-out: cell panel IC50, RPMI-7951",7.55
same,pIC50,"Homo sapiens, SK-N-AS, cell line SK-N-AS, read-out: cell panel IC50, SK-N-AS",7.14
same,pIC50,"Homo sapiens, SW48, cell line SW48, read-out: cell panel IC50, SW48",6.68
same,pIC50,"Homo sapiens, SW480, cell line SW480, read-out: cell panel IC50, SW480",6.45
same,pIC50,"Homo sapiens, SW-620, cell line SW620, read-out: cell panel IC50, SW620",6.53
same,pIC50,"Homo sapiens, U2OS, cell line U-2 OS, read-out: cell panel IC50, U-2 OS",6.96
same,pIC50,"Homo sapiens, U-87 MG, 72 h, U-87 MG cell line, ATPlite, 72 hours, read-out: IC50 in cell proliferation assay (table S5 cellpanel data)",6.95
same,pIC50,"Homo sapiens, cell line J82, read-out: cell panel IC50, J82",6.82
same,pIC50,"Homo sapiens, cell line PA-1, read-out: cell panel IC50, PA-1",8.40
same,pIC50,"Homo sapiens, cell line SJCRH30, read-out: cell panel IC50, SJCRH30",7.15
same,pIC50,"Homo sapiens, cell line SR, read-out: cell panel IC50, SR",8.22
same,pIC50,"U-87 MG cell line, ATPlite, 72 hours, read-out: IC50 in cell proliferation assay (table S5 cellpanel data)",7.05
same,pIC50,"cell line 769-P, read-out: cell panel IC50, 769-P",6.85 and 6.84
same,pIC50,"cell line 786-0, read-out: cell panel IC50, 786-0",6.99
same,pIC50,"cell line A375, read-out: cell panel IC50, A375",7.46 and 7.29
same,pIC50,"cell line ACHN, read-out: cell panel IC50, ACHN",7.08
same,pIC50,"cell line AN3 CA, read-out: cell panel IC50, AN3 CA",7.09 and 7.03
same,pIC50,"cell line BT-20, read-out: cell panel IC50, BT-20",6.68 and 6.80
same,pIC50,"cell line BxPC-3, read-out: cell panel IC50, BxPC-3",6.64 and 6.54
same,pIC50,"cell line CAL 27, read-out: cell panel IC50, CAL 27",7.70
same,pIC50,"cell line CCRF-CEM, read-out: cell panel IC50, CCRF-CEM",7.70
same,pIC50,"cell line DLD-1, read-out: cell panel IC50, DLD-1",6.37 and 6.46
same,pIC50,"cell line FaDu, read-out: cell panel IC50, FaDu",7.33 and 7.24
same,pIC50,"cell line HCT-15, read-out: cell panel IC50, HCT-15",6.60 and 6.56
same,pIC50,"cell line Hs 578T, read-out: cell panel IC50, Hs 578T",7.05 and 7.24
same,pIC50,"cell line J82, read-out: cell panel IC50, J82",6.84 and 6.87
same,pIC50,"cell line Jurkat E6.1, read-out: cell panel IC50, Jurkat E6.1",7.51 and 7.62
same,pIC50,"cell line LoVo, read-out: cell panel IC50, LoVo",7.23
same,pIC50,"cell line MG-63, read-out: cell panel IC50, MG-63",7.17 and 7.06
same,pIC50,"cell line MOLT-4, read-out: cell panel IC50, MOLT-4",7.96 and 7.89
same,pIC50,"cell line MeWo, read-out: cell panel IC50, MeWo",6.65 and 6.58
same,pIC50,"cell line NCI-H82, read-out: cell panel IC50, NCI-H82",7.19
same,pIC50,"cell line NCI-H460, read-out: cell panel IC50, NCI-H460",7.60
same,pIC50,"cell line OVCAR-3, read-out: cell panel IC50, OVCAR-3",6.50 and 6.56
same,pIC50,"cell line PA-1, read-out: cell panel IC50, PA-1",8.28 and 8.19
same,pIC50,"cell line RPMI-7951, read-out: cell panel IC50, RPMI-7951",7.48 and 7.49
same,pIC50,"cell line SJCRH30, read-out: cell panel IC50, SJCRH30",7.21 and 7.37
same,pIC50,"cell line SK-N-AS, read-out: cell panel IC50, SK-N-AS",7.00
same,pIC50,"cell line SR, read-out: cell panel IC50, SR",8.18 and 8.00
same,pIC50,"cell line SW48, read-out: cell panel IC50, SW48",6.95 and 6.92
same,pIC50,"cell line SW480, read-out: cell panel IC50, SW480",6.50 and 6.43
same,pIC50,"cell line SW620, read-out: cell panel IC50, SW620",6.45 and 6.35
same,pIC50,"cell line U-2 OS, read-out: cell panel IC50, U-2 OS",6.94 and 6.82
same,pIC50,"read-out: cell panel IC50, A-172, cell line A-172",7.02
same,pIC50,"read-out: cell panel IC50, A-427, cell line A-427",7.51 and 7.40
same,pIC50,"read-out: cell panel IC50, A-498, cell line A-498",7.04
same,pIC50,"read-out: cell panel IC50, A-549, cell line A-549",7.17
same,pIC50,"read-out: cell panel IC50, AU-565, cell line AU-565",7.03 and 7.10
same,pIC50,"read-out: cell panel IC50, BT-549, cell line BT-549",7.05
same,pIC50,"read-out: cell panel IC50, HCT-116, cell line HCT-116",7.21 and 7.19
same,pIC50,"read-out: cell panel IC50, K-562, cell line K-562",7.24
